Calls of active or inactive are those of the source.
Columns and labels:
[1] = A549 cell cytotoxicity, dose response, cytotoxicity control, plate reader, cherry-pick, antagonist series (AID 743412); type: functional, cell-based
[2] = toxicity toward HepG2 liver cells – cell-based, plate reader, cherry-pick, antagonist series, cytotoxicity control, dose response (AID 743416); type: functional
[3] = inhibition of bursicon-driven LGR2 cAMP signaling – cell-based, HEK293, CRE-luciferase reporter, cherry pick, dose response (AID 743342); type: functional
[4] = blockade of melanocortin 4 receptor signaling – cell-based, plate reader, cherry pick, counter-screen for LGR2 antagonist project, dose response (AID 743444); type: functional;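 note: transfected HEK 293 cells stimulated with alpha-MSH peptide; potency of inhibitors of the alpha-MSH evoked signal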
[5] = viability loss in HEK293 cells – cell-based, plate reader, cherry-picked samples, cytotoxicity control, dose response (AID 743446); type: functional
[6] = luciferase reporter signal suppression in cells – H4 neuroglioma cells, luminescence, dose response (AID 1990); type: functional, cell-based
[7] = Luminescence Cell-Based Dose Response HTS to Identify Inhibitors of 5'UTR Stem-Loop Driven Prion Protein mRNA Translation in H4 Neuroglioblastoma Cells. [Related pubchem assays: 1827 (Project Summary), 1813 (Primary HTS)]; type: functional
[8] = alpha-synuclein stem-loop luciferase translation blockers – H4 neuroglioma cells, luminescence, confirmation (AID 1988); type: functional, cell-based
[9] = target: Disintegrin and metalloproteinase domain-containing protein 17 (Homo sapiens, UniProt P78536); assay: exosite inhibitors of ADAM17, dose response, biochemical (AID 743260)
Sequence of Disintegrin and metalloproteinase domain-containing protein 17 (P78536 whole entry, the tested form may be a part): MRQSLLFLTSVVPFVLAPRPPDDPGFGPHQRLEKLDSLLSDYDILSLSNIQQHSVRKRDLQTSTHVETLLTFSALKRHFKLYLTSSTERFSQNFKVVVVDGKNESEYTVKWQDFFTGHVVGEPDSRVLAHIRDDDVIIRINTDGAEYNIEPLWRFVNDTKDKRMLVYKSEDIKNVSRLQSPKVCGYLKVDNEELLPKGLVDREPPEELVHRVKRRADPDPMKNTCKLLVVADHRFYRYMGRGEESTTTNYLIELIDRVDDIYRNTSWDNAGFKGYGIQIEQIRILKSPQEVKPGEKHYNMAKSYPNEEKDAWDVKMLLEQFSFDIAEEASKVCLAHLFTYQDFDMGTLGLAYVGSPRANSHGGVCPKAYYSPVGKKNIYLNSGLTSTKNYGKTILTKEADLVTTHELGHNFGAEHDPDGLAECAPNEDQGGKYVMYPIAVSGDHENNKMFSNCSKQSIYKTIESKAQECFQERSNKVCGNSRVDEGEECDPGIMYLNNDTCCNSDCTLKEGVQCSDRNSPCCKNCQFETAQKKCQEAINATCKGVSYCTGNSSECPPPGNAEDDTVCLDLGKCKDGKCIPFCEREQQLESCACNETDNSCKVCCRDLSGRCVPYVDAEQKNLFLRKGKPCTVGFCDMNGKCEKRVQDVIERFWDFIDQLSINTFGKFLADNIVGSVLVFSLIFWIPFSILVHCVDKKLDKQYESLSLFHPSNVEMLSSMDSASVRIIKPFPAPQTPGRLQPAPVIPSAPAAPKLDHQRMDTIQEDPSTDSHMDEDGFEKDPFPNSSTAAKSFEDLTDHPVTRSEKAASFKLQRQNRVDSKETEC

[10] = inhibition of ADAM10 peptide cleavage – biochemical, FRET peptide substrate, recombinant human ADAM10, selectivity assay for ADAM17 exosite inhibitor project, dose response (AID 743259);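 note: ADAM10 enzyme cleaving a FRET peptide substrate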
[11] = human cervical cancer cell viability loss – 24 h, plate reader, dry powder, cytotoxicity control, dose response (AID 686928); type: functional, cell-based; settings: HeLa
[12] = Luminescence Cell-Based Dose Confirmation HTS to Identify Activators of 5'UTR Stem-Loop Driven Alpha-Synuclein mRNA Translation in H4 Neuroglioblastoma Cells. [Related pubchem assays: 1829 (Project Summary), 1814 (Primary HTS)]; type: functional
[13] = Luminescence Cell-Based Dose Response HTS to Identify Activators of Luciferase Translation or Activity in H4 […] Cells. [Related pubchem assays: 1829 (Project Summary), 1814 (Primary HTS)]; type: functional
H4 = assay: Luminescence Cell-Based Dose Response HTS to Identify Activators of 5'UTR Stem-Loop Driven Prion Protein mRNA Translation in H4 Neuroglioblastoma Cells. [Related pubchem assays: 1829 (Project Summary), 1814 (Primary HTS)]; type: functional; settings: Homo sapiens
[14] = target: G-protein coupled receptor 55 (Homo sapiens, UniProt Q9Y2T6); assay: inhibition of LPI-stimulated GPR55 beta-arrestin translocation – imaging, U2OS, beta-arrestin-GFP, LPI agonist, primary screen (AID 2013); type: functional;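 note: antagonist potency measured as reduced agonist-driven arrestin aggregation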
Sequence of G-protein coupled receptor 55 (Q9Y2T6 whole entry): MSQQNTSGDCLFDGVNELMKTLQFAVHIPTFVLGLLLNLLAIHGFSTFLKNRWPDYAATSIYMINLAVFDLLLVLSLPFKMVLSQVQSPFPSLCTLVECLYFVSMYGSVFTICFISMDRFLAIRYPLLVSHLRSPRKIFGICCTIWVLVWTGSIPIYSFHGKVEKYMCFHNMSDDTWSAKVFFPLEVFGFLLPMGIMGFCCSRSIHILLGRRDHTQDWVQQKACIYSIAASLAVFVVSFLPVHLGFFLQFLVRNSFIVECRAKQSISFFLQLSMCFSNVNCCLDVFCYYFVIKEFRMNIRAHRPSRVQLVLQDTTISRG

[15] = target: T1, Replicative DNA helicase DnaB (Mycobacterium tuberculosis, UniProt P9WMR3); assay: DnaB intein splicing inhibitors, dose response, biochemical, cell-free fluorescence (AID 449749); type: functional
T1 sequence (P9WMR3 whole entry): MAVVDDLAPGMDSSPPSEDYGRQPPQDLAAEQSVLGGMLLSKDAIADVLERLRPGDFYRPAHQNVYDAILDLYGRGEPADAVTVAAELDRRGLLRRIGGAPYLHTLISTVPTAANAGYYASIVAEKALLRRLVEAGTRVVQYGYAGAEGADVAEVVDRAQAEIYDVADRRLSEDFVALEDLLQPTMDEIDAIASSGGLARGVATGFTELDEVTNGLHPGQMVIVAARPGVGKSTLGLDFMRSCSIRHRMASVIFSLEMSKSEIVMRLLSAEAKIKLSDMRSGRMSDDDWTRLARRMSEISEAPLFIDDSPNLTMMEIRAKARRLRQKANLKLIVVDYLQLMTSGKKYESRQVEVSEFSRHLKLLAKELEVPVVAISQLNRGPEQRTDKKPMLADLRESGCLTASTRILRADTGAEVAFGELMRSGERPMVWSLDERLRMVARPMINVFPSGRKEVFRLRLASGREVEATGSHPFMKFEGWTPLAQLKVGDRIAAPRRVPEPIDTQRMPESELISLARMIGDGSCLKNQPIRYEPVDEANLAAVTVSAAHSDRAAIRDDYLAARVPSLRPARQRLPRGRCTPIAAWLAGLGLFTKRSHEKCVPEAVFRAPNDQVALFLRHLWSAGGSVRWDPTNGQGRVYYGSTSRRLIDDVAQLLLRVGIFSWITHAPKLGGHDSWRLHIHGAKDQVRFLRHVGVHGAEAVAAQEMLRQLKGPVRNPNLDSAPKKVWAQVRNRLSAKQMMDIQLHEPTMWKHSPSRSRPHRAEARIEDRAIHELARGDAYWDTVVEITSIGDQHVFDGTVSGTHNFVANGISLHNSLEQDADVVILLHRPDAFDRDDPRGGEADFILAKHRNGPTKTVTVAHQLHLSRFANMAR

Protein RecA = target: T2, Protein RecA (Mycobacterium tuberculosis, UniProt P9WHJ3); assay: Fluorescence Cell-Free Homogeneous Dose Retest to Identify Inhibitors of RecA-Intein Splicing Activity. [Related pubchem assays (depositor defined):AID2097, AID2223, AID489010, AID492950]; type: functional
T2 sequence (P9WHJ3 whole entry): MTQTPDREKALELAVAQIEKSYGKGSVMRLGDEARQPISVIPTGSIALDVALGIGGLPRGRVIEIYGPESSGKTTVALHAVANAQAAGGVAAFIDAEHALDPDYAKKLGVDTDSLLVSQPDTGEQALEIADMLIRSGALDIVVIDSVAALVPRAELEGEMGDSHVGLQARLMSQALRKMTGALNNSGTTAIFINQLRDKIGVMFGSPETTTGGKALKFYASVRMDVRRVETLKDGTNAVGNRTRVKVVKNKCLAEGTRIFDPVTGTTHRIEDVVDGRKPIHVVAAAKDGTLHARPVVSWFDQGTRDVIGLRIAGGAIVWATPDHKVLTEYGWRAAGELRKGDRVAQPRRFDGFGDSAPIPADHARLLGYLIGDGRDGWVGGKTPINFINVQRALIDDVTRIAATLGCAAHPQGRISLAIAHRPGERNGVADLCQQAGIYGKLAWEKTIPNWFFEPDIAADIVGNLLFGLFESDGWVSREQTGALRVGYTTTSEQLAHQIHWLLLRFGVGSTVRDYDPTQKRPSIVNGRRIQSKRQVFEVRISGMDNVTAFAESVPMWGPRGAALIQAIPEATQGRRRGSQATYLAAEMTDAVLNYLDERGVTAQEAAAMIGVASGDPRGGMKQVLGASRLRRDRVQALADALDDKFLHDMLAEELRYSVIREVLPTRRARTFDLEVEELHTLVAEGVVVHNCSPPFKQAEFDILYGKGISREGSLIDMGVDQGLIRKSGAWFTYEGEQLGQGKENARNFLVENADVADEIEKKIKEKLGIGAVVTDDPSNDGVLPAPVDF

[16] = HGIII-sPLA2 enzyme inhibition potency – biochemical, QFRET, IC50, dose response (AID 743457);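 note: green fluorescence rise as the enzyme cleaves BODIPY PC-A2 in liposomes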
HEK293 [17] = assay: cells; settings: Homo sapiens
HEK293 [18] = assay: cells; settings: Homo sapiens; remark: listed apart in the source
[19] = activation of miR-122 Renilla sensor silencing – cell-based, Huh7 psiCHECK-miR122, Renilla luciferase, cherry-picked, dose response (AID 651956); type: functional;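 note: huh7 hepatoma cells stably carrying a psiCHECK-2 miR-122 sensor plasmid; renilla luciferase signal reporting endogenous miR-122 activity after 48 h compound exposure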
[20] = general mammalian cell viability loss – inhibitor set, cherry-pick, set 2, cytotoxicity control for miR-122 modulator project, dose response (AID 720697); type: functional, cell-based
[21] = NIH-3T3 fibroblast cytotoxicity, dose response, cytotoxicity control, cell-based, fluorescence, Alamar Blue, secondary assay (AID 2327); type: functional;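 note: NIH-3T3 mouse fibroblasts cultured with fluconazole at 8 µg/mL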
[22] = fluconazole-exposed Candida albicans growth modulators – fluorescence, retest, confirmation (AID 2467); type: functional, cell-based
[23] = Trypanosoma cruzi growth suppression in host cells – NIH3T3 host cells, beta-gal luminescence, confirmation (AID 2044); type: functional, cell-based;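 note: intracellular parasites grown in NIH/3T3 mouse fibroblasts as host cells; luminescent beta-galactosidase reporter signal from transgenic T. cruzi replicating inside host cells; inhibitors lower the luminescence signal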
[24] = NIH3T3 cell viability loss – ATP luminescence, mouse fibroblasts, counter-screen, dose response (AID 2010); type: functional, cell-based;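 note: cells exposed to compound for about 90 hours before reading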
Cytochrome P450 2C19 = Cytochrome P450 2C19 (Homo sapiens, UniProt P33261); assay: Cytochrome panel assay with activity outcomes. Panel member name: p450-cyp2c19 Compounds with AC50 equal or less than 10 uM are considered active; type: functional
Sequence of Cytochrome P450 2C19 (P33261 whole entry, the tested form may be a part): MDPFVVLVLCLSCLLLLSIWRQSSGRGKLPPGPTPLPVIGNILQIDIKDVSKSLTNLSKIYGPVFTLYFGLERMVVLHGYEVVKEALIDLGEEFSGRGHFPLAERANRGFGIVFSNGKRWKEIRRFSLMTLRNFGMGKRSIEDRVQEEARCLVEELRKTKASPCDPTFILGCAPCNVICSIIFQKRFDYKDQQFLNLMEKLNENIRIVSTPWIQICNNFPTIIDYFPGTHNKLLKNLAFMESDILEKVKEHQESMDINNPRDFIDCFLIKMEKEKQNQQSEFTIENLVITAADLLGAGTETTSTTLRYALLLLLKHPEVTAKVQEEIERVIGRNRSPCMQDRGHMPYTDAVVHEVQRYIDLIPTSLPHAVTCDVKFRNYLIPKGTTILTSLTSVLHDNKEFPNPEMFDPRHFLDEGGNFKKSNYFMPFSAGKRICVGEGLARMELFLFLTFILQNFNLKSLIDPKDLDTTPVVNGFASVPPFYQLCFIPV

[25] = blockers of HIV-1 envelope-mediated cell-cell fusion – cherry-pick, dose response (AID 652057); type: functional, cell-based
[26] = viability loss in CEM21 cells – cell-based, CellTiter-Glo luminescence, cherry-picked, cytotoxicity control for viral fusion inhibitor project, dose response (AID 652042); type: functional;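 note: potency for signal decrease meaning cytotoxicity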
[27] = blockers of HIV-1 ZM109 envelope-driven cell-cell fusion – HeLa effector, CEM target cells, luciferase, cherry-pick, dose response (AID 652058); type: functional, cell-based;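 note: luciferase signal from HIV-1 Env mediated cell-cell fusion of effector and target cells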
[28] = off-target signal loss in HeLa-CEM21 co-culture – HeLa F-luc CTL cells, cherry-picked, counter-screen for HIV-1 Env fusion inhibitor project, dose response (AID 652040); type: functional, cell-based;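 note: potency for signal decrease marking cytotoxic or nonspecific inhibition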
[29] = HIV-1 AD8 envelope cell-cell fusion blockers – cherry-pick, dose response (AID 652062); type: functional, cell-based;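 note: luciferase signal from cell-cell fusion driven by HIV-1 clade B AD8 Env; potency is for inhibitors of fusion seen as a drop in luminescence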
[30] = target: Fructose-bisphosphate aldolase (Mycobacterium tuberculosis, UniProt P9WQA3); assay: Fluorescence-based biochemical high throughput dose response assay for inhibitors of the fructose-bisphosphate aldolase (FBA) of M. tuberculosis.; type: functional
Sequence of Fructose-bisphosphate aldolase (P9WQA3 whole entry): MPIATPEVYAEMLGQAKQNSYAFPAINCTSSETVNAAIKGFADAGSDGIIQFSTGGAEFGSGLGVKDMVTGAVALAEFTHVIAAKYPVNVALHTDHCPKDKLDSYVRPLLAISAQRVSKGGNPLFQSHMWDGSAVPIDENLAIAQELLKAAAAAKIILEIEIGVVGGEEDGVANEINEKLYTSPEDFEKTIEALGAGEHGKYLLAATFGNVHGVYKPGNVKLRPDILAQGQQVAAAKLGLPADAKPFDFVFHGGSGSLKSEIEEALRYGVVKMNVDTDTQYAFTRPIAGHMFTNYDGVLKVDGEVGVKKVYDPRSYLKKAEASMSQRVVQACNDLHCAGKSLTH

C[C@@H]1CN([C@@H](C)CO)C(=O)c2cc(NC(=O)c3ccncc3)ccc2O[C@@H](C)CCCCO[C@H]1CN(C)C(=O)Nc1cccc2ccccc12
AC50 [1]: 14.3 µM (active)
AC50 [2]: 17.1 µM (active)
AC50 [3]: 2.91 µM (active)
AC50 [4]: 9.74 µM (active)
AC50 [5]: 17.1 µM (active)

CCNC(=S)N/N=C/c1cn(Cc2ccccc2F)c2ccccc12
EC50 [6]: 15.9 µM (active)
EC50 [7]: 24.4 µM (active)
EC50 [8]: 19.7 µM (active)
IC50 [9]: > 69.5 µM (inactive)
IC50 [10]: > 69.5 µM (inactive)

Cc1ccc2cc3c(NC(=O)c4ccco4)nn(C)c3nc2c1
AC50 [11]: 179 µM (active)
AC50 ([11]; 24 h): 121 µM (active)

CCOC(=O)c1c(CSC(=N)N)n(-c2ccccc2)c2cc(Br)c(OC(C)=O)cc12
EC50 [12]: > 120 µM (not active)
EC50 [13]: 9.69 µM (active)
EC50 (H4): > 120 µM (not active)
IC50 [14]: 3.23 µM (active)
AC50 [15]: 5.9 µM (active)
EC50 (Protein RecA): 9.76 µM (active)
IC50 [16]: > 122 µM (inactive)
EC50 (HEK293 [17]): > 59.6 µM (inactive)
EC50 (HEK293 [18]): > 59.6 µM (inactive)

CC(=O)N(C)C[C@H]1Oc2cc(/C=C/c3ccccc3)ccc2S(=O)(=O)N([C@@H](C)CO)C[C@H]1C
AC50 [19]: 26.9 µM (active)
AC50 [20]: 0.451 µM (active)

CC[n+]1c(C=CN(C)c2ccccc2)sc2ccc(Cl)cc21.[O-][Cl+3]([O-])([O-])[O-]
EC50 [21]: > 150 µM (inactive)
EC50 [22]: 3.29 µM (active)
EC50 [23]: < 0.1 µM (active)
EC50 [24]: 5.94 µM (active)
AC50 (Cytochrome P450 2C19): inconclusive
AC50 [25]: 26.3 µM (active)
AC50 [26]: 59.3 µM (active)
AC50 [27]: 39.8 µM (active)
AC50 [28]: 13 µM (active)
AC50 [29]: 8.92 µM (active)
EC50 (cells): 0.146 µM (active)

CN(C)c1ccc(/C=N\NC(=O)CC#N)cc1
IC50 [30]: > 1.11 µM (active)
